Data published in patent US6551998B1, “Antimicrobial agents” (University of Louisville Research Foundation, Inc., priority 1999, dated 2003).
Converted amounts (≈) assume the structure as drawn. Like-named read-outs stand apart in the source and are kept apart here. Square brackets hold non-standard residues; d marks the D form. Ends that are not written are not given here. 2Nal = N[C@@H](Cc1ccc2ccccc2c1)C(=O)O

Key:
[1] = tested on: Methicillin resistant Staphylococcus aureus (ATCC 33591); assay type: cell-based; settings: for MRSA IC50: Table 4; for IC50 / MIC: ATCC 33591; for activity against MRSA (in words): gram-positive organism; for selectivity between MRSA and P. aeruginosa (in words): comparison of the MRSA and Ps A. IC50 of Table 4
Description: (§1) The antimicrobial compounds of the present invention were assayed using a standard microdilution assay against gram-positive bacteria Staphylococcus aureus (strain used: ATTC 29213) and methicillin-resistant strain used ATCC 33591) and the gram-negative bacteria Pseudomonas aeruginosa (strain used ATCC27853). The samples were assayed against 1-5×10^5 colony forming units, in Mueller-Hinton broth, at 37° C. The activity was determined following a 21 hour incubation. The IC50 values were calculated using sigmoidal curve fitting software. (Graphpad™, ISI Software, San Diego, Calif.) and correspond to the sample concentration which inhibits 50 percent of bacterial growth. The minimum inhibitory concenttration (MIC) is defined as the lowest concentration of sample at which no growth is detected by optical density between

[2] = tested on: Pseudomonas aeruginosa (ATCC27853); assay type: cell-based; settings: for Ps A. IC50: Table 4; for activity against Pseudomonas aeruginosa (in words): gram negative organism
Description: as §1

Fusarium oxysporum = settings: cited from earlier work
Fusarium moniliforme = settings: cited from earlier work
[3] = Table 2, Mueller-Hinton broth, 37° C., 21 hour incubation, 50 percent inhibition of bacterial growth
[4] = Table 2, lowest concentration at which no growth is detected, 21 hour incubation

Compound	MRSA IC50 [1] [µg/mL]	Ps A. IC50 [2] [µg/mL]	IC50 [1] [µg/mL]	MIC [1] [µg/mL]	also measured
H-2-Nalψ[CH2NH]Met-3-AMB-Pheψ[CH2NH]Leu-OH [Compound 34]	47	230			
H-2-Nalψ[CH2NH]Lys(Ac)-Ser-Pheψ[CH2NH]Leu-OH [Compound 28]	25.8	190			
CC(C)C[C@H](NC[C@H](Cc1ccccc1)NC(=O)[C@H](Cc1ccccc1)NC(=O)C(C)(C)NC[C@@H](N)Cc1ccc2ccccc2c1)C(=O)O [Compound 12, H-2-Nalψ[CH2NH]Aib-Phe-Pheψ[CH2NH]Leu-OH]			26 (≈ 38.2 µM)	125 to 250	
H-2-Nalψ[CH2NH]Nle-Aib-Pheψ[CH2NH]Leu-OH [Compound 32]	35	> 500			
CC[C@H](C)[C@H](NC[C@@H](N)Cc1ccc2ccccc2c1)C(=O)N[C@@H](Cc1ccccc1)C(=O)N[C@H](CN[C@@H](CC(C)C)C(=O)O)Cc1ccccc1 [Compound 9, H-Nalψ[CH2NH]Ile-Phe-Pheψ[CH2NH]Leu-OH]			9 (≈ 12.7 µM)	16 to 32	
CCC(CC)(NC(=O)[C@H](CCCCN)NC[C@@H](N)Cc1ccc2ccccc2c1)C(=O)N[C@H](CN[C@@H](CC(C)C)C(=O)O)Cc1ccccc1 [Compound 19, H-2-Nalψ[CH2NH]Lys-Deg-Pheψ[CH2NH]Leu-OH]			67 (≈ 97.2 µM)	125 to 250	IC50 ([2]; ATCC27853, 21 h): 143 µg/mL (≈ 208 µM); MIC ([2]; ATCC27853, 21 h): 250 to 500 µg/mL
CC(C)C[C@H](NC[C@H](Cc1ccccc1)NC(=O)[C@H](CO)NC(=O)[C@H](CCCCN)NC[C@@H](N)Cc1ccc2ccccc2c1)C(=O)O [Compound 1, H-2-Nal ψ[CH2NH]Lys-Ser-Pheψ[CH2NH]Leu-OH]			3 (≈ 4.53 µM)	8 to 16	activity against MRSA (in words) [1]: most active; IC50 [2, 3]: 10 µg/mL (≈ 15.1 µM); MIC [2, 4]: 16 to 32 µg/mL
CSCC[C@H](NC[C@@H](N)Cc1ccc2ccccc2c1)C(=O)N[C@@H](Cc1ccccc1)C(=O)N[C@H](CN[C@@H](CC(C)C)C(=O)O)Cc1ccccc1 [Compound 6, H-2-Nalψ[CH2NH]Met-Phe-Pheψ[CH2NH]Leu-OH]			44 (≈ 60.6 µM)	125 to 250	
H-2-Nalψ[CH2NH]Met-4-AMB-Pheψ[CH2NH]Leu-OH [Compound 33]	17.6	163			selectivity between MRSA and P. aeruginosa (in words) [1]: quite selective toward MRSA
CC(C)C[C@H](NC[C@H](Cc1ccccc1)NC(=O)C(C)(C)NC(=O)[C@H](CCCCN)NC[C@@H](N)Cc1ccc2ccccc2c1)C(=O)O [Compound 13, H-2-Nalψ[CH2NH]Lys-Aib-Pheψ[CH2NH]Leu-OH]			54 (≈ 81.7 µM)	125 to 250	IC50 ([2]; ATCC27853, 21 h): 59 µg/mL (≈ 89.3 µM); MIC ([2]; ATCC27853, 21 h): 80 to 125 µg/mL; activity against Pseudomonas aeruginosa (in words) [2]: good potency
CC(C)C[C@H](NC[C@H](Cc1ccccc1)NC(=O)[C@@H](NC(=O)[C@H](CCCCN)NC[C@@H](N)Cc1ccc2ccccc2c1)C(C)C)C(=O)O [Compound 2, H-2-Nalψ[CH2NH]Lys-Val-Pheψ[CH2NH]Leu-OH]			69 (≈ 102 µM)	125 to 250	IC50 ([2]; ATCC27853, 21 h): 58 µg/mL (≈ 85.9 µM); MIC ([2]; ATCC27853, 21 h): 80 to 152 µg/mL
H-2-Nalψ[CH2NH]Lys-Ser-4-AMBψ[CH2NH]Leu-OH [Compound 36]	37.5	32.2			
Ac-2-Nalψ[CH2NH]Lys-Ser-Pheψ[CH2NH]Leu-OH [Compound 24]	60	180			
H-D-2-Nalψ[CH2NH]Lys-Ser-Pheψ[CH2NH]Leu-OH [Compound 22]	10.9	9.2			activity against MRSA (in words) [1]: active against both; activity against Pseudomonas aeruginosa (in words) [2]: active against both
CCC(CC)(NC(=O)[C@H](CCSC)NC[C@@H](N)Cc1ccc2ccccc2c1)C(=O)N[C@H](CN[C@@H](CC(C)C)C(=O)O)Cc1ccccc1 [Compound 20, H-Nalψ[CH2NH]Met-Deg-Pheψ[CH2NH]Leu-OH]			5 (≈ 7.23 µM)	16 to 32	IC50 ([2]; ATCC27853, 21 h): 64 µg/mL (≈ 92.5 µM); MIC ([2]; ATCC27853, 21 h): 80 to 125 µg/mL; activity against Pseudomonas aeruginosa (in words) [2]: good potency
CC[C@H](C)[C@H](NC[C@@H](N)Cc1ccc2ccccc2c1)C(=O)N[C@H](C(=O)N[C@H](CN[C@@H](CC(C)C)C(=O)O)Cc1ccccc1)C(C)C [Compound 8, H-2-Nalψ[CH2NH]Ile-Val-Pheψ[CH2NH]Leu-OH]			5 (≈ 7.58 µM)	8 to 16	
4-AMBψ[CH2NH]Lys-Ser-Pheψ[CH2NH]Leu-OH [Compound 37]	> 500	415			

Compound	MRSA IC50 [1] [µg/mL]	Ps A. IC50 [2] [µg/mL]	IC50 [1] [µg/mL]	MIC [1] [µg/mL]	also measured
H-2-Nalψ[CH2NH]Lys-Ser-Pheψ[CH2NAc]Leu-OH [Compound 30]	26	50			
CC[C@H](C)[C@H](NC[C@@H](N)Cc1ccc2ccccc2c1)C(=O)N[C@@H](CO)C(=O)N[C@H](CN[C@@H](CC(C)C)C(=O)O)Cc1ccccc1 [Compound 7, H-2-Nalψ[CH2NH]Ile-Ser-Pheψ[CH2NH]Leu-OH]			69 (≈ 107 µM)	125 to 250	
4-AMBψ[CH2NH]Lys-Ser-4-AMBψ[CH2NH]Leu-OH [Compound 38]	> 500	> 500			
CCC(CC)(NC[C@@H](N)Cc1ccc2ccccc2c1)C(=O)N[C@@H](Cc1ccccc1)C(=O)N[C@H](CN[C@@H](CC(C)C)C(=O)O)Cc1ccccc1 [Compound 18, H-2-Nalψ[CH2NH]Deg-Phe-Pheψ[CH2NH]Leu-OH]			6 (≈ 8.48 µM)	16 to 32	
CSCCC(NCC(N)Cc1ccc2ccccc2c1)C(=O)NC(C)(C)C(=O)NC(CNC(CC(C)C)C(=O)O)Cc1ccccc1 (stereo not drawn) [Compound 14, H-2-Nalψ[CH2NH]Met-Aib-Pheψ[CH2NH]Leu-OH]			3 (≈ 4.52 µM)	8 to 16	activity against MRSA (in words) [1]: also active; IC50 ([2]; ATCC27853, 21 h): 20 µg/mL (≈ 30.1 µM); MIC ([2]; ATCC27853, 21 h): 31 to 62 µg/mL; activity against Pseudomonas aeruginosa (in words) [2]: good potency
H-D-2-Nalψ[CH2NH]D-Met-Aib-D-Pheψ[CH2NH]D-Leu-OH [Compound 35]	42.1	463			
H-2-Nalψ[CH2NH]Met-Aib-Pheψ[CH2NH]Leu-NH2 [Compound 31]	10.4	94			
H-2-Nal-Lys-Ser-Phe-Leu-OH (H-[2Nal]KSFL-OH; SMILES CC(C)C[C@H](NC(=O)[C@H](Cc1ccccc1)NC(=O)[C@H](CO)NC(=O)[C@H](CCCCN)NC(=O)[C@@H](N)Cc1ccc2ccccc2c1)C(=O)O) [Compound 26]	184	388			activity against MRSA (in words) [1]: modest activity in both assays; activity against Pseudomonas aeruginosa (in words) [2]: modest activity in both assays
H-2-Nalψ[CH2NH]Lys-Ser-Phe-Leu-OH (H-[2Nal]KSFL-OH; also: ψ[CH2NH] reduced bond between 2-Nal1 and Lys2) [Compound 27]	37.8	65.4			
CCC(CC)(NC[C@@H](N)Cc1ccc2ccccc2c1)C(=O)N[C@@H](CO)C(=O)N[C@H](CN[C@@H](CC(C)C)C(=O)O)Cc1ccccc1 [Compound 16, H-2-Nalψ[CH2NH]Deg-Ser-Pheψ[CH2NH]Leu-OH]			17 (≈ 26.2 µM)	62 to 125	IC50 [2, 3]: 170 µg/mL (≈ 262 µM); MIC [2, 4]: > 250 µg/mL
H-2-Nalψ[CH2NAc]Met-Aib-Pheψ[CH2NH]Leu-OH [Compound 25]	28.7	> 500			selectivity between MRSA and P. aeruginosa (in words) [1]: very selective; activity against MRSA (in words) [1]: quite active
CC[C@H](C)[C@H](NC[C@@H](N)Cc1ccc2ccccc2c1)C(=O)NC(C)(C)C(=O)N[C@H](CN[C@@H](CC(C)C)C(=O)O)Cc1ccccc1 [Compound 15, H-2-Nalψ[CH2NH]Ile-Aib-Pheψ[CH2NH]Leu-OH]			39 (≈ 60.4 µM)	80 to 125	
Cecropin A: Cecropins are cationic linear peptides isolated from the hemolymph of the giant silk moth; insect-derived antimicrobial peptide (KWKLFKKIEKVGQNIRDGIIKAGPAVAVVGQATQIAK; ends and bridges not checked; UniProt P01507 27-63, looked up)					concentration giving total killing (Fusarium oxysporum): 12.4 µg/mL; concentration giving total killing (Fusarium moniliforme): 12.4 µg/mL
CC(C)C[C@H](NC[C@H](Cc1ccccc1)NC(=O)[C@H](Cc1ccccc1)NC(=O)[C@H](CCCCN)NC[C@@H](N)Cc1ccc2ccccc2c1)C(=O)O [Compound 3, H-2-Nalψ[CH2NH]Lys-Phe-Pheψ[CH2NH]Leu-OH]			19 (≈ 26.3 µM)	125 to 150	IC50 ([2]; ATCC27853, 21 h): 31 µg/mL (≈ 42.9 µM); MIC ([2]; ATCC27853, 21 h): 40 to 62 µg/mL
H-2-Nalψ[CH2NAc]Lys-Ser-Pheψ[CH2NH]Leu-OH [Compound 23]	19.6	33.5			activity against MRSA (in words) [1]: active against both; activity against Pseudomonas aeruginosa (in words) [2]: active against both
H-D-2-Nalψ[CH2NH]D-Lys-D-Ser-D-Pheψ[CH2NH]D-Leu-OH [Compound 29]	18.8	13.9			selectivity between MRSA and P. aeruginosa (in words) [1]: slight selectivity for the gram-negative organisms
CC[C@H](C)[C@H](NC[C@@H](N)Cc1ccc2ccccc2c1)C(=O)NC(CC)(CC)C(=O)N[C@H](CN[C@@H](CC(C)C)C(=O)O)Cc1ccccc1 [Compound 21, H-2-Nalψ[CH2NH]Ile-Deg-Pheψ[CH2NH]Leu-OH]			34 (≈ 50.4 µM)	40 to 162	
